We go through three molecules from ChEMBL document CHEMBL5120826, “Effects of β-lapachone and β-nor-lapachone on multidrug efflux transporters and biofilms of Candida glabrata” (Bioorg Med Chem, 2022).

In brackets after ≈: the same amount, converted by molar mass. Activity calls are given as the source filed them.

As a reminder, the MIC is the smallest concentration in the dilution series that meets the test's criterion for growth inhibition.

Test [1] concerns Saccharomyces cerevisiae. Put plainly: Indifferent antifungal activity against fluconazole resistant Saccharomyces cerevisiae overexpressing CgCdr2p transporter assessed as fractional inhibitory concentration in presence of fluconazole incubated for 48 hrs by checkboard assay based microplate reader analysis. The class given is functional.
Test [2] concerns Saccharomyces cerevisiae. The test can be described thus: Antifungal activity against fluconazole resistant Saccharomyces cerevisiae overexpressing CgCdr2p transporter assessed as reduction in fungal growth incubated for 48 hrs by checkboard assay based microplate reader analysis. The class given is functional.
For test [3], the system named is Saccharomyces cerevisiae. Put plainly: Indifferent antifungal activity against fluconazole resistant Saccharomyces cerevisiae overexpressing CgCdr1p transporter assessed as reduction in fungal growth incubated for 48 hrs in presence of lapachone by checkboard assay based microplate reader analysis. Format: functional.
Test [4] relates to Saccharomyces cerevisiae. The test can be described thus: Antifungal activity against fluconazole resistant Saccharomyces cerevisiae overexpressing CgCdr1p transporter assessed as reduction in fungal growth incubated for 48 hrs by checkboard assay based microplate reader analysis. Format: functional.
The test system of test [5] is Saccharomyces cerevisiae. Put plainly: Indifferent antifungal activity against fluconazole resistant Saccharomyces cerevisiae overexpressing CgCdr2p transporter assessed as fractional inhibitory concentration index incubated for 48 hrs by checkboard assay based microplate reader analysis. Format: functional.
In test [6] the test system is Saccharomyces cerevisiae. Put plainly: Indifferent antifungal activity against fluconazole resistant Saccharomyces cerevisiae overexpressing CgCdr2p transporter assessed as fractional inhibitory concentration incubated for 48 hrs in presence of lapachone by checkboard assay based microplate reader analysis. The class given is functional.
The subject of test [7] is Saccharomyces cerevisiae. Put plainly: Indifferent antifungal activity against fluconazole resistant Saccharomyces cerevisiae overexpressing CgCdr2p transporter assessed as reduction in fungal growth incubated for 48 hrs in presence of fluconazole by checkboard assay based microplate reader analysis. The class given is functional.
Test [8] relates to Saccharomyces cerevisiae. The test can be described thus: Indifferent antifungal activity against fluconazole resistant Saccharomyces cerevisiae overexpressing CgCdr1p transporter assessed as fractional inhibitory concentration in presence of fluconazole incubated for 48 hrs by checkboard assay based microplate reader analysis. Format: functional.
Test [9] relates to Saccharomyces cerevisiae. The test can be described thus: Indifferent antifungal activity against fluconazole resistant Saccharomyces cerevisiae overexpressing CgCdr1p transporter assessed as fractional inhibitory concentration incubated for 48 hrs in presence of lapachone by checkboard assay based microplate reader analysis. Format: functional.
The test system of test [10] is Saccharomyces cerevisiae. The test can be described thus: Indifferent antifungal activity against fluconazole resistant Saccharomyces cerevisiae overexpressing CgCdr2p transporter assessed as reduction in fungal growth incubated for 48 hrs in presence of lapachone by checkboard assay based microplate reader analysis. Format: functional.
Test [11] relates to Saccharomyces cerevisiae. The test can be described thus: Indifferent antifungal activity against fluconazole resistant Saccharomyces cerevisiae overexpressing CgCdr1p transporter assessed as fractional inhibitory concentration index incubated for 48 hrs by checkboard assay based microplate reader analysis. Format: functional.
Test [12] relates to Saccharomyces cerevisiae. Put plainly: Indifferent antifungal activity against fluconazole resistant Saccharomyces cerevisiae overexpressing CgCdr1p transporter assessed as reduction in fungal growth incubated for 48 hrs in presence of fluconazole by checkboard assay based microplate reader analysis. The class given is functional.
Test [13] deals with Saccharomyces cerevisiae. Put plainly: Antifungal activity against fluconazole resistant Saccharomyces cerevisiae overexpressing CgCdr1p transporter assessed as reduction in fungal growth at lower concentration incubated for 48 hrs by serial dilution method. Format: functional, organism-based.

Regarding `CC1(C)CC2=C(O1)C(=O)c1ccccc1C2=O`, the FIC in [1], in [6], in test [8] and in test [9] was 1 µg/mL in each case. In addition, the minimal inhibitory concentration (MIC) in test [2] was 12.5 µg/mL (≈ 54.8 µM); in test [3] it was > 100 µg/mL; in [4], > 100 µg/mL; in [7], 62.5 µg/mL; in test [10], 12.5 µg/mL; in test [12], 500 µg/mL. In addition, the “fractional inhibitory concentration index (FICI)” value in test [5] and in test [11] was 2 throughout.
Regarding `OC(Cn1cncn1)(Cn1cncn1)c1ccc(F)cc1F`, the outcome in [13] was Active.
In the case of `CC1(C)CCC2=C(O1)C(=O)c1ccccc1C2=O` [ALPHA-LAPACHONE], the FIC in test [1], in [6], in test [8] and in test [9] was 1 µg/mL in each case. Also, the minimum inhibitory concentration (MIC) was > 62.5 µg/mL in test [2]; > 100 µg/mL in test [3]; > 100 µg/mL in test [4]; 62.5 µg/mL in test [7]; > 100 µg/mL in [10]; 500 µg/mL in test [12]. Besides, the “fractional inhibitory concentration index (FICI)” value in test [5] and in [11] was 2 in each case.
